Results on 25 compounds are retold here after US7834023B2 (Portola Pharmaceuticals, Inc., priority 2006, dated 2010).

SMILES strings stand for the structures. Bounds are passed on as bounds.

This assay deals with T1, P2Y12 receptor (Homo sapiens, UniProt Q9H244).
T1 construct: endogenous in cells; host or cells: human platelets (outdated from blood banks or fresh), apyrase-washed, whole
T1 sequence (Q9H244 whole entry): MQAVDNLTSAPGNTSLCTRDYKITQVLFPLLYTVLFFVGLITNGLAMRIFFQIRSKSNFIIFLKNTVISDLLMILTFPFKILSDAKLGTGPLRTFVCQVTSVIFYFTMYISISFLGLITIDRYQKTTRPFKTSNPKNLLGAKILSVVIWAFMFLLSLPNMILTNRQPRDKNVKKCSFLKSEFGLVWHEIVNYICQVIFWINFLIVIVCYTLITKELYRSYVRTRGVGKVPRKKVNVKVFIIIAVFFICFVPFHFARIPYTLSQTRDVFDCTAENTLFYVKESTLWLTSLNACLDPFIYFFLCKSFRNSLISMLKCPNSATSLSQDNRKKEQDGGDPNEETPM
As to the kind of experiment: platelet ADP receptor binding assay (ARB): inhibition of [3H]2-MeS-ADP binding to platelets. The note with it: [3H]2-MeS-ADP binding to apyrase-washed human platelets. As for the experimental part:
1. The Ability of Candidate Molecules to Inhibit the Binding of [^3H]2-MeS-ADP to the […] Receptor on Platelets was Determined Using a Radioligand Binding Assay.
Utilizing this assay the potency of inhibition of such compounds with respect to [^3H]2-MeS-ADP binding to whole platelets is determined. Under the conditions described in II (3) below, the binding of [^3H]2-MeS-ADP is solely due to the interaction of this ligand with the P2Y12 receptor, in that all the specific binding measured in this assay is competable with a P2Y12 antagonist (i.e., the specific binding is reduced to background levels by competition with an excess of P2Y12 antagonist, with no competition of binding when a P2Y1 antagonist is pre-incubated with the platelet preparation). [^3H]2-MeS-ADP binding experiments are routinely performed with outdated human platelets collected by standard procedures at hospital blood banks. Apyrase-washed outdated platelets are prepared as follows (all steps at room temperature, if not indicated otherwise):
Outdated platelet suspensions are diluted with 1 volume of CGS and platelets pelleted by centrifugation at 1900×g for 45 minutes. Platelet pellets are resuspended at 3-6×10^9 platelets/ml in CGS containing 1 U/ml apyrase (grade V, Sigma, St. Louis, Mo.) and incubated for 15 minutes at 37° C. After centrifugation at 730×g for 20 minutes, pellets are resuspended in Hepes-Tyrode's buffer containing 0.1% BSA (Sigma, St. Louis, Mo.) at a concentration of 6.66×10^8 platelets/ml. Binding experiments are performed after >45 minutes resting of the platelets.
Alternatively, binding experiments are performed with fresh human platelets prepared as described in section I (Inhibition of ADP-Mediated Platelet Aggregation in vitro), except that platelets are resuspended in Hepes-Tyrode's buffer containing 0.1% BSA (Sigma, St. Louis, Mo.) at a concentration of 6.66×10^8 platelets/mil. Very similar results are obtained with fresh and outdated platelets.
A platelet ADP receptor binding assay (ARB) using the tritiated potent agonist ligand [^3H]2-MeS-ADP (Jantzen, H. M. et al. (1999) Thromb. Hemost. 81:111-117) has been adapted to the 96-well microtiter format. In an assay volume of 0.2 ml Hepes-Tyrode's buffer with 0.1% BSA and 0.6% DMSO, 1×10^8 apyrase-washed platelets are preincubated in 96-well flat bottom microtiter plates for 5 minutes with serial dilutions of test compounds before addition of 1 nM [^3H]2-MeS-ADP ([^3H]2-methylthioadenosine-5′-diphosphate, ammonium salt; specific activity 20-50 Ci/mmole, obtained by custom synthesis from Amersham Life Science, Inc., Arlington Heights, Ill., or NEN Life Science Products, Boston, Mass.). Total binding is determined in the absence of test compounds. Samples for nonspecific binding may contain 10 μM unlabelled 2-MeS-ADP (RBI, Natick, Mass.). After incubation for 15 minutes at room temperature, unbound radioligand is separated by rapid filtration and two washes with cold (4-8° C.) Binding Wash Buffer (10 mM Hepes pH 7.4, 138 mM NaCl) using a 96-well cell harvester (Minidisc 96, Skatron Instruments, Sterling, Va.) and 8×12 GF/C glassfiber filtermats (Printed Filtermat A, for 1450 Microbeta, Wallac Inc., Gaithersburg, Md.). The platelet-bound radioactivity on the filtermats is determined in a scintillation counter (Microbeta 1450, Wallac Inc., Gaithersburg, Md.). Specific binding is determined by subtraction of non-specific binding from total binding, and specific binding in the presence of test compounds is expressed as % of specific binding in the absence of test compound dilutions. IC50s were derived by non-linear regression analysis.
Compound `CCOC(=O)C(NC(=O)c1ccc(-n2c(=O)[nH]c3cc(NC)c(F)cc3c2=O)cc1)c1ccc(Cl)s1` (stereo not shown) [Compound 26, ethyl 2-(5-chlorothiophen-2-yl)-2-(4-(6-fluoro-7-(methylamino)-2,4-dioxo-1,2-dihydroquinazolin-3(4H)-yl)benzamido)acetate] showed an IC50 above 500 nM. Next, `O=C(NCc1nnn[nH]1)c1ccc(-n2c(=O)[nH]c3cc(NCc4ccc(F)cc4)ccc3c2=O)cc1` [Compound 10, N-((1H-tetrazol-5-yl)methyl)-4-(7-(4-fluorobenzylamino)-2,4-dioxo-1,2-dihydroquinazolin-3(4H)-yl)benzamide]: above 500 nM; `O=C(NC(C(=O)O)c1ccc(Cl)s1)c1ccc(N2COc3ccccc3C2=O)cc1` (stereo not shown) [Compound 83, 2-(5-chlorothiophen-2-yl)-2-(4-(4-oxo-2H-benzo[e][31]oxazin-3(4H)-yl)benzamido)acetic acid]: above 500 nM. Compound `N#Cc1ccc2c(=O)n(-c3ccc(C(=O)NC(C(=O)O)c4cccs4)cc3)ccc2c1` (stereo not shown) [Compound 95] came in with an IC50 above 500 nM. Next, `CNc1cc2[nH]c(=O)n(-c3ccc(CNC(CC(=O)O)c4ccc(Cl)s4)cc3)c(=O)c2cc1F` (stereo not shown) [Compound 104, 3-(5-chlorothiophen-2-yl)-3-(4-(6-fluoro-7-(methylamino)-2,4-dioxo-1,2-dihydroquinazolin-3(4H)-yl)benzylamino)propanoic acid]: 50 to 500 nM; `CNc1cc2[nH]c(=O)n(-c3ccc(C(=O)NC(C(=O)O)c4ccc(Cl)s4)cc3OC)c(=O)c2cc1F` (stereo not shown) [Compound 51, 2-(5-chlorothiophen-2-yl)-2-(4-(6-fluoro-7-(methylamino)-2,4-dioxo-1,2-dihydroquinazolin-3(4H)-yl)-3-methoxybenzamido)acetic acid]: above 500 nM. Next, `CNc1cc2c(cc1F)C(=O)N(c1ccc(CC(=O)NC(C(=O)OC)c3ccc(Cl)s3)cc1)CO2` (stereo not shown) [Compound 118, methyl 2-(5-chlorothiophen-2-yl)-2-(2-(4-(6-fluoro-7-(methylamino)-4-oxo-2H-benzo[e][1,3]oxazin-3(4H)-yl)phenyl)acetamido)acetate]: 50 to 500 nM; `COc1ccc2c(=O)n(-c3ccc(C(=O)NC(C(=O)O)c4ccc(Cl)s4)cc3)ccc2c1` (stereo not shown) [Compound 101, 2-(5-chlorothiophen-2-yl)-2-(4-(6-methoxy-1-oxoisoquinolin-2(1H)-yl)benzamido)acetic acid]: above 500 nM; `CNc1cc2c(cc1F)C(=O)N(c1ccc(C(=O)N[C@H](C(=O)O)c3ccccc3)cc1)CO2` [Compound 65, (S)-2-(4-(6-fluoro-7-(methylamino)-4-oxo-2H-benzo[e][1,3]oxazin-3(4H)-yl)benzamido)-2-phenylacetic acid]: 50 to 500 nM. As to `CCc1ccc2c(c1)OCN(c1ccc(C(=O)NC(C(=O)O)c3ccc(Cl)s3)cc1)C2=O` (stereo not shown) [Compound 78, 2-(5-chlorothiophen-2-yl)-2-(4-(7-ethyl-4-oxo-2H-benzo[e][1,3]oxazin-3(4H)-yl)benzamido)acetic acid], the IC50 is 50 to 500 nM. As for `CNc1cc2c(cc1F)C(=O)N(c1ccc(C(=O)NC(C(=O)O)c3cccs3)cc1)CO2` (stereo not shown) [Compound 63, 2-(4-(6-fluoro-7-(methylamino)-4-oxo-2H-benzo[e][1,3]oxazin-3(4H)-yl)benzamido)-2-(thiophen-2-yl)acetic acid], the figure is above 500 nM. As to `CNc1cc2c(cc1F)C(=O)N(c1ccc(CC(=O)NC(C(N)=O)c3ccc(Cl)s3)cc1)CO2` (stereo not shown) [Compound 122, N-(2-amino-1-(5-chlorothiophen-2-yl)-2-oxoethyl)-2-(4-(6-fluoro-7-(methylamino)-4-oxo-2H-benzo[e][1,3]oxazin-3(4H)-yl)phenyl)acetamide], the IC50 was 50 to 500 nM. Take `CNc1cc2[nH]c(=O)n(-c3ccc(C(=O)NC(c4cccc(OC)c4)c4nnn[nH]4)cc3)c(=O)c2cc1F` (stereo not shown) [Compound 23, 4-(6-fluoro-7-(methylamino)-2,4-dioxo-1,2-dihydroquinazolin-3(4H)-yl)-N-((3-methoxyphenyl)(1H-tetrazol-5-yl)methyl)benzamide]: the IC50 is above 500 nM. Next, `CCOC(=O)C(NC(=O)c1ccc(N2COc3cc(NC)c(F)cc3C2=O)cc1)c1ccc(Cl)s1` (stereo not shown) [Compound 67, ethyl 2-(5-chlorothiophen-2-yl)-2-(4-(6-fluoro-7-(methylamino)-4-oxo-2H-benzo[e][1,3]oxazin-3(4H)-yl)benzamido)acetate]: 50 to 500 nM. With `CNc1cc2[nH]c(=O)n(-c3ccc(C(=O)NC(c4cccc(OC(F)(F)F)c4)c4nnn[nH]4)cc3)c(=O)c2cc1F` (stereo not shown) [Compound 31], the IC50 was above 500 nM. As for `CNc1cc2[nH]c(=O)n(-c3ccc(C(=O)N(CCC(=O)O)Cc4ccc(Cl)s4)cc3)c(=O)c2cc1F` [Compound 40, 3-(N-((5-chlorothiophen-2-yl)methyl)-4-(6-fluoro-7-(methylamino)-2,4-dioxo-1,2-dihydroquinazolin-3(4H)-yl)benzamido)propanoic acid], the figure is above 500 nM. Next, `O=C(NC(C(=O)O)c1cccs1)c1ccc(-n2c(=O)[nH]c3ccccc3c2=O)cc1` (stereo not shown) [Compound 39]: above 500 nM. As for `CNc1ccc2c(=O)n(-c3ccc(C(=O)NC(C(=O)O)c4ccc(Cl)s4)cc3)c(=O)[nH]c2c1` (stereo not shown) [Compound 20, 2-(5-chlorothiophen-2-yl)-2-(4-(7-(methylamino)-2,4-dioxo-1,2-dihydroquinazolin-3(4H)-yl)benzamido)acetic acid], the figure is 50 to 500 nM; as for `CNc1cc2c(=O)n(-c3ccc(C(=O)NC(C(=O)O)c4ccc(Cl)s4)cc3)c(=O)[nH]c2cc1F` (stereo not shown) [Compound 48, 2-(5-chlorothiophen-2-yl)-2-(4-(7-fluoro-6-(methylamino)-2,4-dioxo-1,2-dihydroquinazolin-3(4H)-yl)benzamido)acetic acid], 50 to 500 nM; as for `NC(=O)c1cn(-c2ccc(C(=O)NC(C(=O)O)c3ccc(Cl)s3)cc2)c(=O)c2ccccc12` (stereo not shown) [Compound 99], above 500 nM. Regarding `CNc1cc2[nH]c(=O)n(-c3ccc(C(=O)NC(c4ccc(Cl)c(Cl)c4)c4nnn[nH]4)cc3)c(=O)c2cc1F` (stereo not shown) [Compound 29, N-((3,4-dichlorophenyl)(1H-tetrazol-5-yl)methyl)-4-(6-fluoro-7-(methylamino)-2,4-dioxo-1,2-dihydroquinazolin-3(4H)-yl)benzamide], the concentration for half-maximal inhibition (IC50) is above 500 nM. As for `CNc1cc2c(cc1F)C(=O)N(c1ccc(C(=O)NC(C(=O)OC)c3ccc(Cl)s3)cc1)CO2` (stereo not shown) [Compound 66, methyl 2-(5-chlorothiophen-2-yl)-2-(4-(6-fluoro-7-(methylamino)-4-oxo-2H-benzo[e][1,3]oxazin-3(4H)-yl)benzamido)acetate], the figure is 50 to 500 nM; as for `CNc1cc2[nH]c(=O)n(-c3ccc(C(=O)NC(c4cc(Cl)cc(Cl)c4)c4nnn[nH]4)cc3)c(=O)c2cc1F` (stereo not shown) [Compound 30, N-((3,5-dichlorophenyl)(1H-tetrazol-5-yl)methyl)-4-(6-fluoro-7-(methylamino)-2,4-dioxo-1,2-dihydroquinazolin-3(4H)-yl)benzamide], above 500 nM. For the compound `O=C(NC(C(=O)O)c1ccc(Cl)s1)c1ccc(-n2c(=O)[nH]c3ccc(I)cc3c2=O)cc1` (stereo not shown) [Compound 37, 2-(5-chlorothiophen-2-yl)-2-(4-(6-iodo-2,4-dioxo-1,2-dihydroquinazolin-3(4H)-yl)benzamido)acetic acid], the IC50 fell in the range of 50 to 500 nM. Next, `CNc1cc2[nH]c(=O)n(-c3ccc(C(=O)NC(c4nnn[nH]4)c4ccc(Cl)s4)cc3OC)c(=O)c2cc1F` (stereo not shown) [Compound 52, N-((5-chlorothiophen-2-yl)(1H-tetrazol-5-yl)methyl)-4-(6-fluoro-7-(methylamino)-2,4-dioxo-1,2-dihydroquinazolin-3(4H)-yl)-3-methoxybenzamide]: 50 to 500 nM.
